One series addresses T1, KV4.3 (Homo sapiens, UniProt Q9UK17).
T1 construct: expressed in transfected cells
T1 sequence (Q9UK17 1-655): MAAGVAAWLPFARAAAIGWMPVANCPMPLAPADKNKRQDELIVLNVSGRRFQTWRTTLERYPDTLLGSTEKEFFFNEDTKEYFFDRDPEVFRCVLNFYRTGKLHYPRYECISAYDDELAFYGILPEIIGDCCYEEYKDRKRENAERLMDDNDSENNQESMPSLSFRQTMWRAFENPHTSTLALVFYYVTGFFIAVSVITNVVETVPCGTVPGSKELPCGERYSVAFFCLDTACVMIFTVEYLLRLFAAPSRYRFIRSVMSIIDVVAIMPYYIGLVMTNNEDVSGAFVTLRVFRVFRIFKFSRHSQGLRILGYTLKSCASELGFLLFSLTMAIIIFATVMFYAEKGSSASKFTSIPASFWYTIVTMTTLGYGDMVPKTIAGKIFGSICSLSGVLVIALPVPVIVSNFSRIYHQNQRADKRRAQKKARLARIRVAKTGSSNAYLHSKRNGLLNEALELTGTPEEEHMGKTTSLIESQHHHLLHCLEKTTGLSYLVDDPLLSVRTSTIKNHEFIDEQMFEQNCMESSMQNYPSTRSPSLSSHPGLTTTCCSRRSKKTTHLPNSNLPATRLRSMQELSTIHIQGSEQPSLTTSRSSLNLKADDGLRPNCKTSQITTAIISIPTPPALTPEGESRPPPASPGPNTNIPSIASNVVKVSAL
Put plainly: Whole-cell patch clamp on KV4.3 (Ito). The note with it: read-out: Reference compound % inhibition. It counts as cell-based. The protocol:
(§1) and CiPA Initiative Studies
(§2) =============================================================
(§3) In vitro studies on other ion channels […]
(§4) through NaV1.5, KV4.3, KV7.1/mink, Kir2.1, KV1.5, CaV1.2 and CaV3.2 channels.
(§5) 35-mm dish culture in the conditions mentioned in standard cell culture conditions. Experiments were performed with a cell density enabling isolated cells for patch clamping. Cells were continuously superfused with extracellular medium (1-2 mL∙minute-1) at room temperature.
(§6) D-glucose 10, HEPES 10 and the final pH adjusted to 7.4±0.02 with NaOH for recording NaV1.5, KV4.3, KV7.1/mink, Kir2.1, KV1.5 and CaV3.2 currents. It was (in mM): NaCl 110, KCl 4, BaCl2 20, MgCl2 1, D-glucose 20, HEPES 10 and the final pH adjusted to 7.4 ± 0.02 with NaOH for recording the CaV1.2 current. Compositions of the intracellular solution to fill the pipette are […]
(§7) Composition of intracellular solutions used to fill pipette to record currents through NaV1.5, KV4.3, KV7.1/mink, Kir2.1, KV1.5, CaV1.2 and CaV3.2 channels
(§8) Solution to fill the pipette (mM)
(§9) Creatine-phospho kinase 50 U∙mL-1
(§10) After formation of a Gigaohm seal between the patch electrodes and individual cells (pipette resistance range: 2.0 MΩ - 7.0 MΩ; seal resistance range: > 1 GΩ) the cell membrane across the pipette tip was ruptured to assure electrical access to the cell interior (whole-cell patch-configuration). In case the quality of the seal was poor, the process of seal formation was repeated with a different cell and a new pipette. As soon as a stable seal was established outward tail currents were measured upon pulses described in the Table S2. If current density was judged to be too low for measurement, another cell was recorded. […]
(§11) voltage stimulation protocol indicated in the next table continuously run until the steady-state level of block was reached.
(§12) Stimulation conditions used to record currents through NaV1.5, KV4.3, KV7.1/mink, Kir2.1, KV1.5, CaV1.2 and CaV3.2 channels
(§13) Ion channel Holding potential Pulse / duration Frequency Reference compound […]
(§14) (resting / fast / slow sweeps at one (10 mM) inactivated concentration)

Another series concerns late sodium current. Set-up: method as in Johannesen et al., 2016. The note with it: at the concentrations that caused approximately 20 ms shortening of QTc; ref Johannesen et al., 2016; cited from earlier work.
For another series, the target named is T2, Kir2.1 (Homo sapiens, UniProt P63252).
T2 construct: expressed in transfected cells
T2 sequence (P63252 1-427): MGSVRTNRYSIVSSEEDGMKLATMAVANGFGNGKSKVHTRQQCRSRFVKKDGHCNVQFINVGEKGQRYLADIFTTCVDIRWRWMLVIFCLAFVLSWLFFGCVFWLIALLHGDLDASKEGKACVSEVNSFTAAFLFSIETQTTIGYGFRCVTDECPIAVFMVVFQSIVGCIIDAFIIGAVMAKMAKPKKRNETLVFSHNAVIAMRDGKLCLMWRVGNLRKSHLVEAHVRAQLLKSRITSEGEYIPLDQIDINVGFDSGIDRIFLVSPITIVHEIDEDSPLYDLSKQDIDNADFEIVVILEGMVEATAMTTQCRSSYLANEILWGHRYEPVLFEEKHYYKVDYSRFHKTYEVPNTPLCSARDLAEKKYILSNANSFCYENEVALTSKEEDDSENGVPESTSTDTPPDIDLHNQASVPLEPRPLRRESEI
Kind of series: Whole-cell patch clamp on Kir2.1 (IK1). It counts as cell-based. The following applies: Kir2.1 IK1; 10 μM. The protocol: as §1, §2, §3, §4, §5, §6, §7, §8, §9, §10, §11, §12, §13, §14

The target of another series is T3, KV7.1/mink (Homo sapiens, UniProt P51787).
T3 construct: expressed in transfected cells
Kind of series: Whole-cell patch clamp on KV7.1/mink (IKs). It counts as cell-based. The note with it: read-out: Reference compound % inhibition. The protocol: as §1, §2, §3, §4, §5, §6, §7, §8, §9, §10, §11, §12, §13, §14

The target of a further series is T4, CaV3.2 (Homo sapiens, UniProt O95180).
T4 construct: expressed in transfected cells
T4 sequence (O95180 whole entry): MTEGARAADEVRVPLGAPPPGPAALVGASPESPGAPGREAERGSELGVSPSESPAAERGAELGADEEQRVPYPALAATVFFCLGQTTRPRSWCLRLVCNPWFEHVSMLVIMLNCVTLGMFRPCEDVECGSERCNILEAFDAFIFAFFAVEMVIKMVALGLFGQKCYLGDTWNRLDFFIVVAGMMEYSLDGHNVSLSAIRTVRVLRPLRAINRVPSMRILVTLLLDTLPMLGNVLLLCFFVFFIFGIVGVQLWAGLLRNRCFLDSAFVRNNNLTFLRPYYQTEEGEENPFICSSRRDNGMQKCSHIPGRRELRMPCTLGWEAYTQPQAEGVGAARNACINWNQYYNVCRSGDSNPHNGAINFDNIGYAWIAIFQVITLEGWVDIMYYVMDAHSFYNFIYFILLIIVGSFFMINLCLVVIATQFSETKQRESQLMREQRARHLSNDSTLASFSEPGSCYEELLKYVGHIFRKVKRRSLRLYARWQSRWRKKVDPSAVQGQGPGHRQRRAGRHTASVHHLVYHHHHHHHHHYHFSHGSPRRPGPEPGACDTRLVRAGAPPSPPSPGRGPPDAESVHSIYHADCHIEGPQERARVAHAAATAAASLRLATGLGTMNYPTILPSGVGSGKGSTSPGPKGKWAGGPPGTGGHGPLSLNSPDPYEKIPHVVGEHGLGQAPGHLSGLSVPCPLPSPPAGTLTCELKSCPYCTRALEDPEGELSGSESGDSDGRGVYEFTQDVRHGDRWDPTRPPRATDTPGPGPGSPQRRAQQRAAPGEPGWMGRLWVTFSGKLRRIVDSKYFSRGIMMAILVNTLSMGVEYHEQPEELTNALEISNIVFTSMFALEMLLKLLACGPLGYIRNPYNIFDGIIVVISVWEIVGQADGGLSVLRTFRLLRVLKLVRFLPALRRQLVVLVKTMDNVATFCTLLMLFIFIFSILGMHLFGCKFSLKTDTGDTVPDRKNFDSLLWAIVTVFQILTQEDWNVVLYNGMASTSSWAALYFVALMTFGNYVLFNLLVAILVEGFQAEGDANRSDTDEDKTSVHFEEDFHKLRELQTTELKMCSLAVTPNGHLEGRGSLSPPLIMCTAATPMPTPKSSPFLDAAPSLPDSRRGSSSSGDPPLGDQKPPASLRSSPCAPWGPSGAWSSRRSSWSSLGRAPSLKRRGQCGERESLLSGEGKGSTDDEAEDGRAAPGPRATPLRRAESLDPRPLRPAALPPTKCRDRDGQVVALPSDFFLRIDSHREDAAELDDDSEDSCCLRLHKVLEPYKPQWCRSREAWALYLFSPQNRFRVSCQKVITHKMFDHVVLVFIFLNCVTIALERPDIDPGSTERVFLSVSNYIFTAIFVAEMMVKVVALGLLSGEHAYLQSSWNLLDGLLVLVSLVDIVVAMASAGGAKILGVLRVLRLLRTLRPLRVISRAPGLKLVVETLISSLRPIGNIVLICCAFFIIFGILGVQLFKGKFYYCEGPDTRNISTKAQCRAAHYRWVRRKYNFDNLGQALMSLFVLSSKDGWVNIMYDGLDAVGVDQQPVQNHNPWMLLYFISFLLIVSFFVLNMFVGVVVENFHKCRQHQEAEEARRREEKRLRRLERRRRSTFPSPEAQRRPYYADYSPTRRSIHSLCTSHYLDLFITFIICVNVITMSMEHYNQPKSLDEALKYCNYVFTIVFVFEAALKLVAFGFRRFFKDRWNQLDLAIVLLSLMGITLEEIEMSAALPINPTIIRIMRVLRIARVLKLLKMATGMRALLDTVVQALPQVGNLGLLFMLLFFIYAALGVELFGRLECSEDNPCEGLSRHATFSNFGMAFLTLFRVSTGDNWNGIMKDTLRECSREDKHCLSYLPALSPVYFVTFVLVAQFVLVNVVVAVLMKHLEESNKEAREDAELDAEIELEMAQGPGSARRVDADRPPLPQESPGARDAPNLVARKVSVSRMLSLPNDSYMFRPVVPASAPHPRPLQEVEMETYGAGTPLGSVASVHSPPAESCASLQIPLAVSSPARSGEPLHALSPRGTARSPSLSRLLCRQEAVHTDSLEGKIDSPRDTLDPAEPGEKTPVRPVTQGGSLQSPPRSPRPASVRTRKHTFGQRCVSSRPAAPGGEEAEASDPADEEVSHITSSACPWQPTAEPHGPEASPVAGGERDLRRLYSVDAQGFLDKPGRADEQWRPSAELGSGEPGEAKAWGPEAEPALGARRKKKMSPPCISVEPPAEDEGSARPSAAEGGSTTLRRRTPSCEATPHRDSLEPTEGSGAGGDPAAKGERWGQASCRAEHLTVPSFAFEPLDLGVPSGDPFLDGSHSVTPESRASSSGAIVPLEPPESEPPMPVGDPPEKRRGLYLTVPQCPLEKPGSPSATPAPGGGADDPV
Put plainly: Whole-cell patch clamp on CaV3.2 (ICaT). It counts as cell-based. The note with it: read-out: Reference compound % inhibition. The protocol: as §1, §2, §3, §4, §5, §6, §7, §8, §9, §10, §11, §12, §13, §14

The next series has as its target T5, KV1.5 (Homo sapiens, UniProt P22460).
T5 construct: expressed in transfected cells
Put plainly: Whole-cell patch clamp on KV1.5 (IKur). It counts as cell-based. The following applies: read-out: Reference compound % inhibition. The protocol:
as §1, §2, §3, §4, §5, §6, §7, §8, §9, §10, §11, §12, §13, §14

The next series concerns anaesthetized rabbits. How it is done:
All the other experimental groups were 100% female. Animals were anaesthetized with sodium pentobarbital (45–60 mg·kg^−1 i.v.), maintained on a heated pad and mechanically ventilated with room air. […] A fluid‐filled catheter was inserted into the carotid artery to measure systemic arterial blood pressure and for blood sampling. A venous catheter was implanted into the jugular vein for infusion of drugs. Standard surface ECG leads I, II and III were monitored continuously to measure ECG intervals and the occurrence of ventricular tachyarrhythmia. Measurements of arterial blood pressures were calculated over 30 s duration at baseline and every 5 min. […] Then, for all determinations, the means of 10–30 consecutive sinus beats were automatically calculated at each time point (i.e. at the end of the stabilization period and then every 5 until 60 min after starting drug infusion) or until the occurrence of premature ventricular beats. Parameters recorded were systolic, diastolic and mean arterial blood pressure (mmHg), heart rate (beats·min^‐1 calculated from RR interval) as well as PR, QRS and QT/QTU intervals (ms), amplitudes of T‐wave and U‐wave (mV) and rhythm disturbances retrieved from ECG signals. […] Arrhythmia were scored according to the following scale: 0 being no arrhythmia, 1 being premature beats, 2 being auriculo‐ventricular blocks, 3 being ventricular tachycardia and 4 being TdP; and scores correspond to the average of maximal life‐threatening arrhythmias recorded during the experiment. […] Haemodynamic and ECG recordings were monitored continuously over 60 min following the start of infusion.

Series [1] relates to methoxamine‐sensitized rabbits. Put plainly: in vivo. Also on record: species or system rabbit. The following applies: clofilium 20.5 μg·kg^−1·min^−1. The protocol: All the other experimental groups were 100% female.
The anaesthetized methoxamine‐sensitized rabbit model of TdP is frequently used to study torsadogenic potential of drugs (Carlsson et al., 1990). Briefly, female animals were pre‐sensitized with i.v. infusion of methoxamine, an α1‐adrenoceptor agonist, delivered at 15 μg·kg^−1·min^−1 (6 mL·h^−1) over 70 min.

For a further series, the system named is hERG. Set-up: method as in Jonker et al., 2005. The note with it: simulation study; 95% CI: 12–32 ms; ref Jonker et al., 2005; cited from earlier work.
In the next series the test system is rabbit Purkinje fibres. Put plainly: Dofetilide-induced early after-depolarizations and triggered activity in rabbit Purkinje fibres. It counts as cell-based. The protocol: Following a lethal dose of pentobarbital, the hearts of male New Zealand rabbits were immediately excised and immersed in a modified Tyrode solution maintained at room temperature and previously saturated with O2/CO2 (95%/5%). A piece of ventricle containing free running Purkinje fibres was fixed to the silastic bottom of an organ bath perfused with the same solution maintained at 37°C for 30 min. The preparation was then superfused with the modified Tyrode solution and stimulated for 30 min at 2 Hz and then at 1 Hz (2 ms stimulus at twice threshold). […] After a stabilization period of at least 1 h, action potentials typical for Purkinje fibres were recorded. Action potential reproducibility and stability were confirmed during a further 20 min stabilization period. […] Each was applied for 20 min to enable steady state to be reached. In addition, the emergence of early after‐depolarizations (EADs), favoured by calcium loading during the late phase 2 of the prolonged action potential, is recognized as a better marker of pro‐arrhythmic potential than APD prolongation alone.

Series [2] has as its system hERG channel. The following applies: cited from earlier work.
The next series deals with fast INa. The following applies: read-out: IC50 for fast INa; ref Gao et al., 2013; cited from earlier work.
In series [3] the test system is late INa. The note with it: read-out: IC50 for late INa; ref Gao et al., 2013; cited from earlier work.
The test system of a further series is canine Purkinje fibres. Also on record: method as in Fazekas et al., 1998. The following applies: mexiletine (10 mM) added after erythromycin, ref Fazekas et al., 1998; cited from earlier work.
The conditions of series [4]: in vivo; cited from earlier work.
In series [5] the test system is late INa. The note with it: at clinical Cmax; ref Vicente et al., 2015; cited from earlier work.
The next series concerns late INa current. Set-up: method as in Obejero‐Paz et al., 2015. The note with it: ref Obejero‐Paz et al., 2015; cited from earlier work.
The test system of series [6] is hERG channel. The following applies: cited from earlier work. This is another data set of the same source.

Where two headings read alike, the source gives them in different places.

T5 sequence (P22460 whole entry): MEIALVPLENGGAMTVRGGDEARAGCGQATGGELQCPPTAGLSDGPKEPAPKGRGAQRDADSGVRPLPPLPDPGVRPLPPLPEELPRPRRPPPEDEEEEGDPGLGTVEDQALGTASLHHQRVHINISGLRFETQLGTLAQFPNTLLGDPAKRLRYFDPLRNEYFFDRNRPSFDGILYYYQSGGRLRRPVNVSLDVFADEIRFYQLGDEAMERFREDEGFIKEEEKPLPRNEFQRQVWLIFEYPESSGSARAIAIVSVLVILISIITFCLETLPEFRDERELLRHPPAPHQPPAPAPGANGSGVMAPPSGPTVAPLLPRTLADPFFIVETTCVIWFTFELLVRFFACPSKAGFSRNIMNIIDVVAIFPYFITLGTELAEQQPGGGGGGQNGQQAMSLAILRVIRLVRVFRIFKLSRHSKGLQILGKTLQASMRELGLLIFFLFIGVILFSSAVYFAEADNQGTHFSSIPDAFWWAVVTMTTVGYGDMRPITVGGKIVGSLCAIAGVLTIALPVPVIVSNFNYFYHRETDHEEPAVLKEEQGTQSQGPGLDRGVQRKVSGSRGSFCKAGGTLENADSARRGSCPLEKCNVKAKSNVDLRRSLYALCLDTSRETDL

With `CN(C)[C@@H](CCOc1cccc2ccccc12)c1ccccc1` [Dapoxetine, reference compound], on KV4.3, the inhibition at 30 µM was 74%.
Regarding `CCN(CC)CC(=O)Nc1c(C)cccc1C` [Lidocaine], in the series on late sodium current, the “block of late sodium current” value was “about 20%”.
Consider `COc1ccc(CNCc2cccc3ccccc23)cc1` [ML 133, reference compound], for which the “Reference compound % inhibition” value on Kir2.1 is reported as “ML 133 (10 μM): 96%”.
Take `OC(c1cc(C(F)(F)F)nc2c(C(F)(F)F)cccc12)C1CCCCN1` (centres unmarked) [Mefloquine, reference compound]: at KV7.1/mink, the inhibition at 10 µM worked out at 61%.
For the molecule `COCC(=O)O[C@]1(CCN(C)CCCc2nc3ccccc3[nH]2)CCc2cc(F)ccc2[C@@H]1C(C)C` [Mibefradil, reference compound], at CaV3.2, the inhibition at 1 µM is 83%.
On to `CC(C)(C)c1ccc(C(O)CCCN2CCC(C(O)(c3ccccc3)c3ccccc3)CC2)cc1` (centres unmarked) [Terfenadine, reference compound], for which the inhibition at 10 µM at KV1.5 stood at 81%.
Take `CCCCCCC[N+](CC)(CC)CCCCc1ccc(Cl)cc1` [clofilium, reference compound]: the “QTc interval (ms) (mean ± SEM)” value with anaesthetized rabbits (both, rabbit, in vivo) is listed as 152 ± 2 ms; in the series on anaesthetized rabbits (both, rabbit, in vivo, 20 min), 157 ± 3 ms; with anaesthetized rabbits (both, rabbit, in vivo, 30 min), 168 ± 5 ms; with anaesthetized rabbits (both, rabbit, in vivo, 40 min), 172 ± 8 ms. Besides, the “prolongation of QTc interval vs. baseline” value in the series on anaesthetized rabbits (both, rabbit, in vivo, iv, 60 min) is on record as “+13 ± 5%”. This molecule came in with a TdP occurrence with anaesthetized rabbits (clofilium up to 1 mg·kg^−1, n = 3/4) of 75%. Besides, the ventricular tachycardia incidence in the series with anaesthetized rabbits (clofilium up to 1 mg·kg^−1, n = 4/4) came to 100%. Besides, in series [1], the “increase in UTA ratio” value came out at 90%.
In the case of `CN(CCOc1ccc(NS(C)(=O)=O)cc1)CCc1ccc(NS(C)(=O)=O)cc1` [dofetilide, reference compound], the “QT prolongation corresponding to a 10% hERG blockade” value in the series with hERG is listed as 20 ms. Besides, the “induction of EADs or triggered activity” value in the series with rabbit Purkinje fibres (0.1 μM) is listed as “all 10 preparations”. The molecule further yielded an APD90 with rabbit Purkinje fibres (dofetilide 0.1 μM for 35 min, 0.25 Hz, trace of Figure 3B) of 593 ms.
As to `Cc1cccc(C)c1OCC(C)N` (centres unmarked) [mexiletine], the IC50 was 3.7 ± 0.7 µM with hERG channel [2], 34.6 ± 2.9 µM in the series with fast INa and 17.6 ± 1.9 µM in the series on late INa [3]. The “block of late sodium current” value in the series with late sodium current is on record as “about 20%”. The “disappearance of erythromycin-induced EADs (preparations)” value in the series with canine Purkinje fibres was 7/9. Besides, the therapeutic concentrations in series [4] was 3.4 to 9.5 µM.
For `COc1ccccc1OCC(O)CN1CCN(CC(=O)Nc2c(C)cccc2C)CC1` (centres unmarked) [ranolazine], in the series with late INa [5], the “block of late INa” value is 21%.
For `Fc1ccc(C(OCCN2CCN(CCCc3ccccc3)CC2)c2ccc(F)cc2)cc1` [vanoxerine], the figures for the IC50 in the series on late INa current and in the series on hERG channel [6] were 0.0852 µM and […], respectively.

The record behind these values is article PMC5715595 (British Journal of Pharmacology, 2017).
